Read-outs that look alike come from different tables or passages of the source. Numbered stars: 1 amine (or outer) side, 2 acyl side, 3 side chain; on linkers, the order of the positions; unused ones are H or OH. Square brackets hold non-standard residues; d marks the D form. Side chains are listed from the residue outwards. Peptide text beside a SMILES is read from it. * marks the point of attachment. C18 diacid = O=C(O)CCCCCCCCCCCCCCCCC(=O)*; C16 diacid = O=C(O)CCCCCCCCCCCCCCC(=O)*; γGlu = O=C(O)[C@H](CCC(=O)[*:2])N[*:1]; Met(O2) = CS(=O)(=O)CC[C@H](N)C(=O)O; αMeD = C[C@](N)(CC(=O)O)C(=O)O; αMeS = C[C@](N)(CO)C(=O)O; AEEA = NCCOCCOCC(=O)O
Legend:
human GCGR = molecular target: T1, human GCGR (Homo sapiens, UniProt P47871); test: cAMP activity assay at the Glucagon receptor (GCGR); format: cell-based; conditions: for hGCGR/hGLP1R (hTone): ratio of GCGR EC50 to GLP1R EC50; for EC50: summary statement: EC50 at each of the glucagon and GLP-1 receptors, read-out: EC50 at the glucagon receptor
T1 construct: expressed in transfected cells; growth medium holds Blasticidin and Hygromycin
Outline: (§1)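 Peptides serially diluted from DMSO (10 points) and added to frozen-stock cells bearing human GLP1R (10,000 cells/well) or GCGR (30,000 cells/well), 1 h at RT, dark. EC50 by four-parameter logistic fit of HitHunter cAMPXS luminescence, read following overnight RT incubation.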

human GLP1R = molecular target: T2, human GLP1R (Homo sapiens, UniProt P43220); test: cAMP activity assay at the GLP-1 receptor (GLP1R); format: cell-based
T2 construct: expressed in transfected cells; growth medium holds Blasticidin and Hygromycin
Outline: as §1

[1] = summary statement: EC50 at each of the glucagon and GLP-1 receptors, read-out: EC50 at the GLP-1 receptor

T2 sequence (P43220 24-463): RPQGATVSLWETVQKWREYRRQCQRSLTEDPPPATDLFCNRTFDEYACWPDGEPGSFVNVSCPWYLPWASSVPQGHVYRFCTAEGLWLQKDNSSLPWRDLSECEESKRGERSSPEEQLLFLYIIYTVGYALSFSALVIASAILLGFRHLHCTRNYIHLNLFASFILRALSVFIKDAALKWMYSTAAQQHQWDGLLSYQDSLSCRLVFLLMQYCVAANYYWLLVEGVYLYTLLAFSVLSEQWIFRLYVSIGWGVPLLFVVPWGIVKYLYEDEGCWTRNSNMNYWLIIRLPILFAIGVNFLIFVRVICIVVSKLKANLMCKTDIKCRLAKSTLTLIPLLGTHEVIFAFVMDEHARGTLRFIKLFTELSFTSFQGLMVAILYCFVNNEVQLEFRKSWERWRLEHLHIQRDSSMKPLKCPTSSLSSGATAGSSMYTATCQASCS
T1 sequence (P47871 26-477): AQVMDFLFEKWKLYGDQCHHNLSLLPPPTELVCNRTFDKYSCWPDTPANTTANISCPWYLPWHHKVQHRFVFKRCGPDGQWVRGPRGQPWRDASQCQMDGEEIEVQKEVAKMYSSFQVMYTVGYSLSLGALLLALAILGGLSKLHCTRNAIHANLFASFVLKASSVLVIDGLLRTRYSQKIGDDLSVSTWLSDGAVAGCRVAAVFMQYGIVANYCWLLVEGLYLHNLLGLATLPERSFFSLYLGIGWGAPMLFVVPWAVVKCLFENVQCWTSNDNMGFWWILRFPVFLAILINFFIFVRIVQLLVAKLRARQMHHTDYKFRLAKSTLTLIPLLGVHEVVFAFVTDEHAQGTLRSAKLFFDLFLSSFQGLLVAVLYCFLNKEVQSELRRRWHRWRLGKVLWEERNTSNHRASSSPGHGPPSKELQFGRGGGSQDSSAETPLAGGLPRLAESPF

Row | hGCGR/hGLP1R (hTone) (human GCGR) | EC50 (human GCGR) [nM] | EC50 (human GLP1R; [1]) [nM] | EC50 (human GLP1R; cells expressing human GLP1R, cAMP production, buffer with or without 20% human serum (not stated which), read-out: GLP1R EC50 human) [nM] | SMILES
1 | 0.6 | < 5 | < 5 |  | CC(C)C[C@H](NC(=O)[C@H](Cc1ccc(O)cc1)NC(=O)[C@H](CCCCN)NC(=O)[C@H](CO)NC(=O)[C@H](Cc1ccc(O)cc1)NC(=O)[C@H](CC(=O)O)NC(=O)[C@H](CO)NC(=O)[C@@H](NC(=O)[C@H](Cc1ccccc1)NC(=O)[C@@H](NC(=O)CNC(=O)[C@H](CCC(N)=O)NC(=O)[C@](C)(CO)NC(=O)[C@@H](N)Cc1c[nH]cn1)[C@@H](C)O)[C@@H](C)O)C(=O)N[C@@H](CC(=O)O)C(=O)N[C@@H](C)C(=O)N[C@@H](CCCNC(=N)N)C(=O)N[C@@H](C)C(=O)N[C@@H](C)C(=O)N[C@@H](CCC(N)=O)C(=O)N[C@@H](CCCCNC(=O)COCCOCCNC(=O)COCCOCCNC(=O)CC[C@H](NC(=O)CCCCCCCCCCCCCCC(=O)O)C(=O)O)C(=O)N[C@@H](Cc1ccccc1)C(=O)N[C@H](C(=O)N[C@@H](CCC(N)=O)C(=O)N[C@@H](Cc1c[nH]c2ccccc12)C(=O)N[C@@H](CC(C)C)C(=O)N[C@@H](CCS(C)(=O)=O)C(=O)N[C@@](C)(CC(=O)O)C(=O)N[C@H](C(N)=O)[C@@H](C)O)C(C)C [TP615] (H-H[αMeS]QGTFTSDYSKYLDARAAQK([AEEA-AEEA-γGlu-C16 diacid])FVQWL[Met(O2)][αMeD]T-NH2)
2 | 0.8 | < 5 | < 5 | 0.76 | CC(C)C[C@H](NC(=O)[C@H](Cc1ccc(O)cc1)NC(=O)[C@H](CCCCN)NC(=O)[C@H](CO)NC(=O)[C@H](Cc1ccc(O)cc1)NC(=O)[C@H](CC(=O)O)NC(=O)[C@H](CO)NC(=O)[C@@H](NC(=O)[C@H](Cc1ccccc1)NC(=O)[C@@H](NC(=O)CNC(=O)[C@H](CCC(N)=O)NC(=O)[C@](C)(CO)NC(=O)[C@@H](N)Cc1c[nH]cn1)[C@@H](C)O)[C@@H](C)O)C(=O)N[C@@H](CC(=O)O)C(=O)N[C@@H](C)C(=O)N[C@@H](CCCNC(=N)N)C(=O)N[C@@H](C)C(=O)N[C@@H](C)C(=O)N[C@@H](CCC(N)=O)C(=O)N[C@@H](CCCCNC(=O)COCCOCCNC(=O)COCCOCCNC(=O)CC[C@H](NC(=O)CCCCCCCCCCCCCCCCC(=O)O)C(=O)O)C(=O)N[C@@H](Cc1ccccc1)C(=O)N[C@H](C(=O)N[C@@H](CCC(N)=O)C(=O)N[C@@H](Cc1c[nH]c2ccccc12)C(=O)N[C@@H](CC(C)C)C(=O)N[C@@H](CCS(C)(=O)=O)C(=O)N[C@@](C)(CC(=O)O)C(=O)N[C@H](C(N)=O)[C@@H](C)O)C(C)C [TP617] (H-H[αMeS]QGTFTSDYSKYLDARAAQK([AEEA-AEEA-γGlu-C18 diacid])FVQWL[Met(O2)][αMeD]T-NH2)
3 | 0.7 | < 5 | < 5 |  | CC(C)C[C@H](NC(=O)[C@H](Cc1ccc(O)cc1)NC(=O)[C@H](CCCCN)NC(=O)[C@H](CO)NC(=O)[C@H](Cc1ccc(O)cc1)NC(=O)[C@H](CC(=O)O)NC(=O)[C@H](CO)NC(=O)[C@@H](NC(=O)[C@H](Cc1ccccc1)NC(=O)[C@@H](NC(=O)CNC(=O)[C@H](CCC(N)=O)NC(=O)[C@](C)(CO)NC(=O)[C@@H](N)Cc1c[nH]cn1)[C@@H](C)O)[C@@H](C)O)C(=O)N[C@@H](CC(=O)O)C(=O)N[C@@H](C)C(=O)N[C@@H](CCCNC(=N)N)C(=O)N[C@@H](C)C(=O)N[C@@H](C)C(=O)N[C@@H](CCCCNC(=O)COCCOCCNC(=O)COCCOCCNC(=O)CC[C@H](NC(=O)CCCCCCCCCCCCCCCCC(=O)O)C(=O)O)C(=O)N[C@@H](CC(=O)O)C(=O)N[C@@H](Cc1ccccc1)C(=O)N[C@H](C(=O)N[C@@H](CCC(N)=O)C(=O)N[C@@H](Cc1c[nH]c2ccccc12)C(=O)N[C@@H](CC(C)C)C(=O)N[C@@H](CCS(C)(=O)=O)C(=O)N[C@@](C)(CC(=O)O)C(=O)N[C@H](C(N)=O)[C@@H](C)O)C(C)C [TP616] (H-H[αMeS]QGTFTSDYSKYLDARAAK([AEEA-AEEA-γGlu-C18 diacid])DFVQWL[Met(O2)][αMeD]T-NH2; N-terminus assumed)
